Data from PubChem BioAssay (NCI).
Values joined by “and” are separate entries in the source; they are usually repeats but may differ in a detail not shown here. Equal entries are not always repeated.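 Each compound was tested at five concentrations against cells in 96-well plates for 48 hours. Abbreviation: GI50, concentration required for 50% inhibition of growth. At the TGI there is no net growth.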

Columns and labels:
Assay in all cases: DTP human tumour cell line panel, 48 h
EKVX NSCLC = system: EKVX NSCLC
CAKI-1 renal = system: CAKI-1 renal
OVCAR-4 ovarian = system: OVCAR-4 ovarian
HL-60(TB) leukemia = system: HL-60(TB) leukemia
HCT-15 colon = system: HCT-15 colon
SK-OV-3 ovarian = system: SK-OV-3 ovarian
HOP-62 NSCLC = system: HOP-62 NSCLC
SF-268 CNS = system: SF-268 CNS
A498 renal = system: A498 renal
OVCAR-8 ovarian = system: OVCAR-8 ovarian

SMILES | TGI (EKVX NSCLC) | TGI (CAKI-1 renal) | TGI (OVCAR-4 ovarian) [µM] | TGI (HL-60(TB) leukemia) | TGI (HCT-15 colon) | TGI (SK-OV-3 ovarian) | TGI (HOP-62 NSCLC) | TGI (SF-268 CNS) | TGI (A498 renal) | TGI (OVCAR-8 ovarian) | GI50 (EKVX NSCLC) | GI50 (OVCAR-4 ovarian) | GI50 (HCT-15 colon) | GI50 (SK-OV-3 ovarian) | GI50 (HOP-62 NSCLC) | GI50 (SF-268 CNS) | GI50 (OVCAR-8 ovarian) | GI50 (CAKI-1 renal) [µM] | GI50 (HL-60(TB) leukemia) | GI50 (A498 renal)
CC(=O)c1cc([N+](=O)[O-])ccc1OCC(=O)O | > 100 µM | > 100 µM | > 100 | > 100 µM | > 100 µM | > 100 µM | > 100 µM | > 100 µM | > 100 µM | > 100 µM |  |  |  |  |  |  |  |  |  | 
CN=S(=O)(c1ccccc1)c1ccccc1 | > 100 µM | > 100 µM | > 100 | > 100 µM | > 100 µM | > 100 µM | > 100 µM | > 100 µM | > 100 µM | > 100 µM |  |  |  |  |  |  |  |  |  | 
CC1C(=O)C(C)C(c2ccccc2)N(N=O)C1c1ccccc1 (stereo not given) | > 1000 µM | > 700 µM | > 661 | > 1000 µM | > 1000 µM | > 83.8 µM and 472 µM | > 78.3 µM and 360 µM | 352 µM | 696 µM | > 946 µM | > 1000 µM | > 378 µM | > 1000 µM | 103 µM | 111 µM | 44 µM | 353 µM |  |  | 
O=NNc1nc(-c2cccnc2)nc2ccccc12 | > 100 µM | > 100 µM | > 100 | > 100 µM | > 100 µM | > 100 µM | > 100 µM | > 100 µM | > 100 µM | > 100 µM |  |  |  |  |  |  |  |  |  | 
Fc1cccc(COc2ccc(Nc3ncnc4cc(-c5ccc[nH]5)sc34)cc2Cl)c1 | 3.75 µM | 6.89 µM | 3.84 | 3.22 µM | > 13 µM | 20.1 µM | 8.52 µM | > 14.7 µM | > 17.7 µM | > 25 µM | 0.323 µM | 0.0847 µM | 0.264 µM | 2.41 µM | 3.01 µM | 1.46 µM | 3.38 µM | 0.681 | 0.354 µM | 2.27 µM
Cc1cccc(C(C)C)c1NC(=O)C(=O)CC(=O)c1c(C)n([O-])c2ccccc2[n+]1=O | > 100 µM | > 100 µM | 95 | > 100 µM | 62.2 µM | > 100 µM | > 100 µM | > 100 µM | > 100 µM | > 100 µM |  |  |  |  |  |  |  |  |  | 
N#CC(C(=O)C(=O)NCCCNC(=O)C(=O)C(C#N)c1ccccc1)c1ccccc1 (stereo not given) | > 100 µM | > 100 µM | > 100 | > 100 µM | > 100 µM | > 100 µM | > 100 µM | > 100 µM | > 100 µM | > 100 µM |  |  |  |  |  |  |  |  |  | 
CSc1nc2c(nc(N)n2C2OCC(O)C(O)C2O)c(=O)n1C (stereo not given) | > 100 µM | > 100 µM | > 100 | > 100 µM |  | > 100 µM | > 100 µM | > 100 µM | > 100 µM | > 100 µM |  |  |  |  |  |  |  |  |  | 
OCc1ccc(-c2nn(Cc3ccccc3)c3ccccc23)o1 | 72.7 µM and 58.9 µM | > 63.5 µM and 34 µM | > 100 | 40.5 µM and 58.3 µM | 49.2 µM and 41.4 µM | 57.1 µM and 43.9 µM | 53.8 µM and 30.2 µM | 65.8 µM and 51.1 µM | 0.25 µM and 0.144 µM | 44.7 µM and 57 µM | 18.9 µM and 22.9 µM | 10.2 µM and 28.1 µM | 17.4 µM and 20.1 µM | 20.7 µM and 17.6 µM | 15.8 µM and 2.86 µM | 18.6 µM and 19 µM | 16.3 µM and 20.7 µM |  | 15.6 µM and 19 µM | 0.092 µM and 0.0445 µM
